Measured values taken from PubChem BioAssay (NCI).
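In this assay, cells in 96-well plates receive the compound at five concentrations for 48 hours. Endpoints are linearly interpolated between the surrounding concentrations. TGI marks complete inhibition of growth.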

What was measured:
Assay in all cases: NCI-60 cell line screen, 48 h
786-0 renal = test system: 786-0 renal
A498 renal = test system: A498 renal
A549 NSCLC = test system: A549 NSCLC
ACHN renal = test system: ACHN renal
CAKI-1 renal = test system: CAKI-1 renal
COLO 205 colon = test system: COLO 205 colon
DLD-1 colon = test system: DLD-1 colon
DMS 273 small cell lung = test system: DMS 273 small cell lung
EKVX NSCLC = test system: EKVX NSCLC
HCC-2998 colon = test system: HCC-2998 colon
HCT-116 colon = test system: HCT-116 colon
HCT-15 colon = test system: HCT-15 colon
HOP-18 NSCLC = test system: HOP-18 NSCLC
HOP-62 NSCLC = test system: HOP-62 NSCLC
HT29 colon = test system: HT29 colon
IGROV1 ovarian = test system: IGROV1 ovarian
KM12 colon = test system: KM12 colon
KM20L2 colon = test system: KM20L2 colon
LOX IMVI melanoma = test system: LOX IMVI melanoma
LXFL 529 NSCLC = test system: LXFL 529 NSCLC
M14 melanoma = test system: M14 melanoma
M19-MEL melanoma = test system: M19-MEL melanoma
MALME-3M melanoma = test system: MALME-3M melanoma
NCI-H23 lung = test system: NCI-H23 lung
NCI-H460 lung = test system: NCI-H460 lung
OVCAR-3 ovarian = test system: OVCAR-3 ovarian
OVCAR-4 ovarian = test system: OVCAR-4 ovarian
OVCAR-5 ovarian = test system: OVCAR-5 ovarian
OVCAR-8 ovarian = test system: OVCAR-8 ovarian
RXF 393 renal = test system: RXF 393 renal
RXF-631 renal = test system: RXF-631 renal
SF-268 CNS = test system: SF-268 CNS
SF-295 CNS = test system: SF-295 CNS
SF-539 CNS = test system: SF-539 CNS
SK-MEL-2 melanoma = test system: SK-MEL-2 melanoma
SK-MEL-28 melanoma = test system: SK-MEL-28 melanoma
SK-MEL-5 melanoma = test system: SK-MEL-5 melanoma
SK-OV-3 ovarian = test system: SK-OV-3 ovarian
SN12C renal = test system: SN12C renal
SNB-19 CNS = test system: SNB-19 CNS
SNB-75 CNS = test system: SNB-75 CNS
SNB-78 CNS = test system: SNB-78 CNS
SW-620 colon = test system: SW-620 colon
TK-10 renal = test system: TK-10 renal
U251 CNS = test system: U251 CNS
UACC-257 melanoma = test system: UACC-257 melanoma
UACC-62 melanoma = test system: UACC-62 melanoma
UO-31 renal = test system: UO-31 renal
XF 498 CNS = test system: XF 498 CNS

## CN1CC(=O)N2Cc3ccccc3-n3cccc3C2C1 (centres undefined)
786-0 renal
  TGI: > 100 µM
A498 renal
  TGI: > 100 µM
A549 NSCLC
  TGI: > 100 µM
ACHN renal
  TGI: > 100 µM
CAKI-1 renal
  TGI: > 100 µM
COLO 205 colon
  TGI: > 100 µM
DLD-1 colon
  TGI: > 100 µM
DMS 273 small cell lung
  TGI: > 100 µM
EKVX NSCLC
  TGI: > 100 µM
HCC-2998 colon
  TGI: > 100 µM
HCT-116 colon
  TGI: > 100 µM
HCT-15 colon
  TGI: > 100 µM
HOP-18 NSCLC
  TGI: 91.7 µM
HOP-62 NSCLC
  TGI: > 100 µM
HT29 colon
  TGI: > 100 µM
IGROV1 ovarian
  TGI: > 100 µM
KM12 colon
  TGI: > 100 µM
KM20L2 colon
  TGI: > 100 µM
LOX IMVI melanoma
  TGI: > 100 µM
LXFL 529 NSCLC
  TGI: > 100 µM
M14 melanoma
  TGI: > 100 µM
M19-MEL melanoma
  TGI: > 100 µM
MALME-3M melanoma
  TGI: > 100 µM
NCI-H23 lung
  TGI: > 100 µM
NCI-H460 lung
  TGI: > 100 µM
OVCAR-3 ovarian
  TGI: > 100 µM
OVCAR-4 ovarian
  TGI: > 100 µM
OVCAR-5 ovarian
  TGI: > 100 µM
OVCAR-8 ovarian
  TGI: > 100 µM
RXF 393 renal
  TGI: > 100 µM
RXF-631 renal
  TGI: > 100 µM
SF-268 CNS
  TGI: > 100 µM
SF-295 CNS
  TGI: > 100 µM
SF-539 CNS
  TGI: > 100 µM
SK-MEL-2 melanoma
  TGI: > 100 µM
SK-MEL-28 melanoma
  TGI: > 100 µM
SK-MEL-5 melanoma
  TGI: > 100 µM
SK-OV-3 ovarian
  TGI: > 100 µM
SN12C renal
  TGI: > 100 µM
SNB-19 CNS
  TGI: > 100 µM
SNB-75 CNS
  TGI: > 100 µM
SNB-78 CNS
  TGI: > 100 µM
SW-620 colon
  TGI: > 100 µM
TK-10 renal
  TGI: > 100 µM
U251 CNS
  TGI: > 100 µM
UACC-257 melanoma
  TGI: > 100 µM
UACC-62 melanoma
  TGI: > 100 µM
UO-31 renal
  TGI: > 100 µM
XF 498 CNS
  TGI: > 100 µM
